Measurements published in US11878965B2, “Inhibitors of peptidylarginine deiminases” (Gilead Sciences, Inc., priority 2020, dated 2024).
pIC50: −log10 of the molar value.

Target: human PAD4 (Homo sapiens (Human), UniProt Q9UM07)
Experiment: In Vitro PAD4 BAEE Biochemical Assay
Details: geometric mean of multiple experiments
Summary of the method: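 Recombinant human PAD4 (His-SUMO tag removed, E. coli-expressed), 5 nM, preincubated with compound and 2 mM CaCl2 30 min at 25 °C in MOPS pH 7.6 with DTT; 3 mM BAEE added for 2 h at 25 °C, EDTA stop. Released ammonia detected by o-phthalaldehyde/DTT fluorescence (ex 405, em 535 nm).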

[1] = recombinant PAD4 5 nM, 2 mM calcium chloride, 3 mM BAEE substrate
[2] = human PAD4, BAEE substrate, 5 nM PAD4, 2 mM calcium chloride, 3 mM BAEE

Chain of human PAD4 (Q9UM07 2-663): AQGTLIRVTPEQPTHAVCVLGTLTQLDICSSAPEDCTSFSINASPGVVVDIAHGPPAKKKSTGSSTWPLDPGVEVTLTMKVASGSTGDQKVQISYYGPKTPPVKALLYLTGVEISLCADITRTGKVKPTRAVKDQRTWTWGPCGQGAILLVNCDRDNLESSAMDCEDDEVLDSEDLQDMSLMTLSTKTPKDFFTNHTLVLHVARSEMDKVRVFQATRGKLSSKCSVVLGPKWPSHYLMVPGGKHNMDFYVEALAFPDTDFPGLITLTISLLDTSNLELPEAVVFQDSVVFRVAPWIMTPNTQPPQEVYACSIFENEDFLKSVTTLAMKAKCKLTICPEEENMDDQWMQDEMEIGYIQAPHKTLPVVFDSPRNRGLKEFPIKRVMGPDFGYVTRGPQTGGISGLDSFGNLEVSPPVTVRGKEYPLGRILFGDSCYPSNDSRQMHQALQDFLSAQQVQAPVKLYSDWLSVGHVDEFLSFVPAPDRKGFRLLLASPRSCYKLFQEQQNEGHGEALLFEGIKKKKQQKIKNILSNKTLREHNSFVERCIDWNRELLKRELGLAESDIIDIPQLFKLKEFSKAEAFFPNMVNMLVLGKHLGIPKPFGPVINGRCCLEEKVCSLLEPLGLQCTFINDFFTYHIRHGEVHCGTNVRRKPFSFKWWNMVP

Row | Compound | pIC50 [1] | pIC50 [2]
1 | COc1cc(C(=O)N2CC3(CCCCN3)C2)cc2nc(-c3cc4ccc(N(C(F)F)S(C)(=O)=O)nc4n3CC3CC3)n(C)c12 [Example 76, N-(1-(cyclopropylmethyl)-2-(7-methoxy-1-methyl-5-(2,5-diazaspiro[3.5]nonane-2-carbonyl)-1H-benzo[d]imidazol-2-yl)-1H-pyrrolo[2,3-b]pyridin-6-yl)-N-(difluoromethyl) methanesulfonamide] |  | 4.30
2 | COc1cc(C(=O)N2CCC[C@@H](N)[C@H]2C)cc2nc(-c3cc4ccc(N=S(C)(C)=O)nc4n3CC3CC3)n(C)c12 [Example 95, ((2-(5-((2R,3R)-3-amino-2-methylpiperidine-1-carbonyl)-7-methoxy-1-methyl-1H-benzo[d]imidazol-2-yl)-1-(cyclopropylmethyl)-1H-pyrrolo [2,3-b]pyridin-6-yl)imino)dimethyl-16-sulfanone] |  | 5.80
3 | [2H][C@]1(N)CCCN(C(=O)c2cc(OC)c3c(c2)nc(-c2cc4ccc(N(C(F)F)S(C)(=O)=O)nc4n2CC2CC2)n3C)C1 [Example 46, (S)-N-(2-(5-(3-aminopiperidine-1-carbonyl-3-d)-7-methoxy-1-methyl-1H-benzo[d]imidazol-2-yl)-1-(cyclopropylmethyl)-1H-pyrrolo[2,3-b]pyridin-6-yl)-N-(difluoromethyl) methanesulfonamide] |  | 5.94
4 | COc1cc(C(=O)N2C[C@H](N)CCN2C)cc2nc(-c3cc4ccc([C@@H](C)NC(=O)C56CC(F)(C5)C6)nc4n3CC3CC3)n(C)c12 [Example 171, N-((R)-1-(2-(5-((R)-5-amino-2-methylhexahydropyridazine-1-carbonyl)-7-methoxy-1-methyl-1H-benzo[d]imidazol-2-yl)-1-(cyclopropylmethyl)-1H-pyrrolo[2,3-b]pyridin-6-yl)ethyl)-3-fluorobicyclo[1.1.1]pentane-1-carboxamide] |  | 7.04
5 | COc1cc(C(=O)N2CCC[C@@H](N)C2)cc2nc(-c3cc4ccc(N(C)C(=O)N(C)C)nc4n3CC3CC3)n(C)c12 [Example 117, (R)-1-(2-(5-(3-aminopiperidine-1-carbonyl)-7-methoxy-1-methyl-1H-benzo[d]imidazol-2-yl)-1-(cyclopropylmethyl)-1H-pyrrolo[2,3-b]pyridin-6-yl)-1,3,3-trimethylurea] |  | 5.95
6 | COc1cc(C(=O)N2C[C@H](N)CCN2C)cc2nc(-c3cc4ccc([C@@H](C)NC(=O)C5(CC(F)F)CC5)nc4n3CC3CC3)n(C)c12 [Example 193, N-((R)-1-(2-(5-((R)-5-amino-2-methylhexahydropyridazine-1-carbonyl)-7-methoxy-1-methyl-1H-benzo[d]imidazol-2-yl)-1-(cyclopropylmethyl)-1H-pyrrolo[2,3-b]pyridin-6-yl)ethyl)-1-(2,2-difluoroethyl)cyclopropane-1-carboxamide] |  | 6.85
7 | COc1cc(C(=O)N2C[C@H](N)CCN2C)cc2nc(-c3cc4ccc([C@@H](C)NC(=O)c5cccc(F)c5C)nc4n3CC3CC3)n(C)c12 [Example 212, N-((R)-1-(2-(5-((R)-5-amino-2-methylhexahydropyridazine-1-carbonyl)-7-methoxy-1-methyl-1H-benzo[d]imidazol-2-yl)-1-(cyclopropylmethyl)-1H-pyrrolo[2,3-b]pyridin-6-yl)ethyl)-3-fluoro-2-methylbenzamide] |  | 6.77
8 | COc1cc(C(=O)N2C[C@H](N)CCN2C)cc2nc(-c3cc4ccc([C@@H](C)NC(=O)C(C)(C)c5ccccc5)nc4n3CC3CC3)n(C)c12 [Example 159, N-((R)-1-(2-(5-((R)-5-amino-2-methylhexahydropyridazine-1-carbonyl)-7-methoxy-1-methyl-1H-benzo[d]imidazol-2-yl)-1-(cyclopropylmethyl)-1H-pyrrolo[2,3-b]pyridin-6-yl)ethyl)-2-methyl-2-phenylpropanamide] |  | 6.64
9 | C[C@@H](NC(=O)[C@@H]1CC1(F)F)c1ccc2cc(-c3nc4cc(C(=O)N5C[C@H](N)[C@@H]6CC[C@H]5C6)cc(F)c4n3C3CC3)n(CC3CC3)c2n1 [Example 226, (S)-N-((R)-1-(2-(5-((1S,4R,5R)-4-amino-2-azabicyclo[3.2.1]octane-2-carbonyl)-1-cyclopropyl-7-fluoro-1H-benzo[d]imidazol-2-yl)-1-(cyclopropylmethyl)-1H-pyrrolo[2,3-b]pyridin-6-yl)ethyl)-2,2-difluorocyclopropane-1-carboxamide] |  | 7.27
10 | COc1cc(C(=O)N2[C@H]3CC[C@@H]2[C@H](N)C3)cc2nc(-c3cc4ccc([C@@H](C)NC(=O)c5cnc(C)o5)cc4n3CC3CC3)n(C)c12 [Example 138, N-((R)-1-(2-(5-((1R,2R,4S)-2-amino-7-azabicyclo[2.2.1]heptane-7-carbonyl)-7-methoxy-1-methyl-1H-benzo[d]imidazol-2-yl)-1-(cyclopropylmethyl)-1H-indol-6-yl)ethyl)-2-methyloxazole-5-carboxamide] |  | 7.56
11 | COC(=O)N(c1ccc2cc(-c3nc4cc(C(=O)N5CCC[C@@H](N)C5)cc(OC)c4n3C)n(CC3CC3)c2n1)C1CCC1 [Example 110, (R)-methyl (2-(5-(3-aminopiperidine-1-carbonyl)-7-methoxy-1-methyl-1H-benzo[d]imidazol-2-yl)-1-(cyclopropylmethyl)-1H-pyrrolo[2,3-b]pyridin-6-yl) (cyclobutyl)carbamate] |  | 6.29

Second part, the molecule after the results:

Row | pIC50 [1] | pIC50 [2] | Compound
12 | 7.25 |  | COc1cc(C(=O)N2C[C@H](N)[C@@H]3CC[C@H]2C3)cc2nc(-c3cc4ccc([C@@H](C)NC(=O)[C@H]5CC5(F)F)nc4n3CC3CC3)n(C)c12 [Example 312, (R)-N-((R)-1-(2-(5-((1S,4R,5R)-4-amino-2-azabicyclo[3.2.1]octane-2-carbonyl)-7-methoxy-1-methyl-1H-benzo[d]imidazol-2-yl)-1-(cyclopropylmethyl)-1H-pyrrolo[2,3-b]pyridin-6-yl)ethyl)-2,2-difluorocyclopropane-1-carboxamide]
13 | 7.09 |  | COc1cc(C(=O)N2C[C@H](N)[C@@H]3CC[C@H]2C3)cc2nc(-c3cc4ccc([C@@H](C)NC(=O)c5cnc(C(F)F)nc5)nc4n3CC3CC3)n(C)c12 [Example 315, N-((R)-1-(2-(5-((1S,4R,5R)-4-amino-2-azabicyclo[3.2.1]octane-2-carbonyl)-7-methoxy-1-methyl-1H-benzo[d]imidazol-2-yl)-1-(cyclopropylmethyl)-1H-pyrrolo[2,3-b]pyridin-6-yl)ethyl)-2-(difluoromethyl)pyrimidine-5-carboxamide]
14 | 7.18 |  | COc1cc(C(=O)N2C[C@H](N)[C@@H]3CC[C@H]2C3)cc2nc(-c3cc4ccc([C@@H](C)NC(=O)c5ccc(C#CC(C)(C)S(C)(=O)=O)nc5)nc4n3CC3CC3)n(C)c12 [Example 308, N-((R)-1-(2-(5-((1S,4R,5R)-4-amino-2-azabicyclo[3.2.1]octane-2-carbonyl)-7-methoxy-1-methyl-1H-benzo[d]imidazol-2-yl)-1-(cyclopropylmethyl)-1H-pyrrolo[2,3-b]pyridin-6-yl)ethyl)-6-(3-methyl-3-(methylsulfonyl)but-1-yn-1-yl)nicotinamide]
15 |  | 5.31 | COc1cc(C(=O)N2C[C@H](N)CC[C@@H]2C)cc2nc(-c3cc4ccc(-c5sc(C(C)C)nc5C)nc4n3CC3CC3)n(C)c12 [Example 274, ((2S,5R)-5-amino-2-methylpiperidin-1-yl)(2-(1-(cyclopropylmethyl)-6-(2-isopropyl-4-methylthiazol-5-yl)-1H-pyrrolo[2,3-b]pyridin-2-yl)-7-methoxy-1-methyl-1H-benzo[d]imidazol-5-yl)methanone]
16 |  | 6.49 | COc1cc(C(=O)N2C[C@H](N)CC[C@@H]2C)cc2nc(-c3cc4ccc(N5C(=O)CC[C@@H]5C)nc4n3CC3CC3)n(C)c12 [Example 285, (S)-1-(2-(5-((2S,5R)-5-amino-2-methylpiperidine-1-carbonyl)-7-methoxy-1-methyl-1H-benzo[d]imidazol-2-yl)-1-(cyclopropylmethyl)-1H-pyrrolo[2,3-b]pyridin-6-yl)-5-methylpyrrolidin-2-one]
17 |  | 5.88 | COc1cc(C(=O)N2C[C@H](N)CC[C@@H]2C)cc2nc(-c3cc4ccc(-c5cc6cn[nH]c6cc5C)nc4n3CC3CC3)n(C)c12 [Example 256, ((2S,5R)-5-amino-2-methylpiperidin-1-yl)(2-(1-(cyclopropylmethyl)-6-(6-methyl-1H-indazol-5-yl)-1H-pyrrolo[2,3-b]pyridin-2-yl)-7-methoxy-1-methyl-1H-benzo[d]imidazol-5-yl)methanone]
18 | 6.60 |  | COc1cc(C(=O)N2C[C@H](N)[C@@H]3CC[C@H]2C3)cc2nc(-c3cc4ccc([C@@H](C)NC(=O)c5cnc(C(F)(F)F)cn5)nc4n3CC3CC3)n(C)c12 [Example 318, N-((R)-1-(2-(5-((1S,4R,5R)-4-amino-2-azabicyclo[3.2.1]octane-2-carbonyl)-7-methoxy-1-methyl-1H-benzo[d]imidazol-2-yl)-1-(cyclopropylmethyl)-1H-pyrrolo[2,3-b]pyridin-6-yl)ethyl)-5-(trifluoromethyl)pyrazine-2-carboxamide]
19 |  | 5.03 | COc1cc(C(=O)N2CCC[C@@H](N)C2)cc2nc(-c3cc4ccc(NC(C)(C)C)nc4n3CC3CC3)n(C)c12 [Example 278, (R)-(3-aminopiperidin-1-yl)(2-(6-(tert-butylamino)-1-(cyclopropylmethyl)-1H-pyrrolo[2,3-b]pyridin-2-yl)-7-methoxy-1-methyl-1H-benzo[d]imidazol-5-yl)methanone]
20 |  | 6.11 | COc1cc(C(=O)N2C[C@H](N)CC[C@@H]2C)cc2nc(-c3cc4ccc(N5CCCCC5=O)nc4n3CC3CC3)n(C)c12 [Example 272, 1-(2-(5-((2S,5R)-5-amino-2-methylpiperidine-1-carbonyl)-7-methoxy-1-methyl-1H-benzo[d]imidazol-2-yl)-1-(cyclopropylmethyl)-1H-pyrrolo[2,3-b]pyridin-6-yl)piperidin-2-one]
